Where a name gives a salt, the structure may show the parent alone. Read-outs that look alike come from different tables or passages of the source.
Legend:
[1] = tested on: Toxoplasma gondii RH-2F tachyzoites; experiment: microbe, parasite or virus in culture; conditions: 72 h
[2] = tested on: c-Raf-1Y340D/Y341D; parameters: method as in library vendor description; conditions: ref library vendor description; cited from earlier work
[3] = tested on: GFP-TgAtg8 tachyzoites; experiment: Flow cytometric analysis of the parasite cell cycle (PI staining); assay type: cell-based, Toxoplasma gondii; conditions: 8 h with compound after PDTC synchronization
Description: Flow cytometric analyses were performed as described previously. Briefly, HFFs were infected with GFP-TgAtg8 tachyzoites at a MOI = 1. At 12 hpi, the cell cycle was synchronized by adding 80 μM pyrrolidine dithiocarbamate (PDTC, Sigma-Aldrich) and incubating at 37 °C and 5% CO2 for 8 h. After removing the PDTC, cells were incubated at 37 °C and 5% CO2 for 8 h in media containing the specified compound. The extracellular parasites were removed by washing with ice-cold PBS, and the intracellular tachyzoites were isolated by passage of host cells through a 27-gauge needle and purified with a 3 μm filter. The purified parasites were fixed with ice cold ethanol at − 20 °C for 24 h, and their DNA was stained by using propidium iodide (PI) solution (40 μg/ml PI, 360 μg/ml RNase A and 2% BSA in PBS) at 37 °C for 30 min in the dark. The stained parasites were filtered with a 5 μm pore filter and analysed on a FACSCanto™II flow cytometer (BD Biosciences, CA, USA). The results were analysed on an EPICS-XL flow cytometer (Beckman Coulter, CA, USA) by using SYSTEM II software (Beckman Coulter), and the percentages of the population in each phase of the cell cycle (G1, S, and G2 +M) were calculated. At least 10,000 events were collected per sample.

[4] = tested on: human foreskin fibroblasts (HFFs); experiment: In vitro drug efficacy: dose-response host cell viability by CCK8 (TD50); assay type: cell-based; conditions: uninfected HFFs, serial dilutions 0 to 100 μM, 72 h
Description: Each selected compound with an initial concentration of 100 μM in the culture medium was added to the first column of HFFs (~ 250 cells/well) in a 96-well half-area plate and then diluted serially across the plate by 2-fold dilutions, leaving the final column drug-free. […] Fifty tachyzoites were then added at a MOI of 1:5 to each well in six of the eight rows. After a 72 h incubation, CPRG was added, and the absorbance was measured at 570 nm. Meanwhile, to measure the effect of each compound on the viability of host cells, CCK8 reagent was added to the two rows of uninfected HFFs and absorbance at 450 nm was measured after 2 h. The assay was performed in triplicate and repeated three times.

[5] = tested on: NWT-21 fibrosarcoma; conditions: dose of 50 mg/kg; cited from earlier work
[6] = tested on: human foreskin fibroblasts (HFFs)
[7] = tested on: IGF-1R; parameters: method as in library vendor description; conditions: ref library vendor description; cited from earlier work
[8] = tested on: NWT-21 cells (NIH3T3 stably expressing the human IGF-IR); conditions: in vitro; read-out: IC50 against NWT-21 cells; cited from earlier work
[9] = tested on: GFP-TgAtg8 tachyzoites; experiment: Egress assay (A23187-induced); conditions: compound for 24 h, 3 μM A23187 for 5 min
[10] = cited from earlier work
[11] = tested on: T. gondii RH strain; experiment: Murine model of acute toxoplasmosis: survival; assay type: in vivo, BALB/c mice; conditions: 50 mg/kg oral once daily for 5 days, RH tachyzoites ip, 20-day observation, n = 10; vehicle 11.9 ± 0.74 days
Description: To evaluate the ability of the two compounds to protect against acute T. gondii infection in vivo, we used a BALB/c murine model and challenged the mice with the RH-2F strain of T. gondii. Mice were divided into 4 groups consisting of 15 mice each and injected intraperitoneally with 10^3 RH strains per animal. Compounds were dissolved in DMSO and diluted in PBS prior to feeding to mice. After 4 h of infection, mice were treated for 5 consecutive days with daily oral administration of the specified compound at 50 mg/kg (once a day). Mice treated with pyrimethamine (50 mg/kg) were used as a positive control, and 1 ml PBS containing 11 μl of DMSO was used as a negative control. Within each group, 5 mice were euthanized at 7 dpi for comparison of parasite burden, and 10 mice were part of a 20-day survival experiment. Mice were monitored as described previously and scored twice per day for signs of toxoplasmosis, such as impaired mobility, difficulty in feeding, weight loss, self-mutilation and severe ascites. […] At the end of the experimental period, all remaining mice were euthanized.

[12] = tested on: Toxoplasma gondii RH-2F tachyzoites; conditions: 5 μM compound, 72 h, RH-2F in HFFs; DMSO 0%, 10 μM pyrimethamine 100% inhibition
[13] = tested on: Toxoplasma gondii RH-2F tachyzoites; experiment: microbe, parasite or virus in culture; assay type: cell-based; conditions: 72 h, read-out: IC50 for parasite growth
[14] = tested on: RH GFP-TgAtg8 tachyzoites; experiment: Intracellular proliferation assay; conditions: NVP-AEW541 […], GSK-J4 HCl 5 μM, 24 h after 2 h infection
[15] = tested on: A375 cells; parameters: method as in library vendor description; conditions: Hsp90 inhibitor; ref library vendor description; cited from earlier work
[16] = in vitro; conditions: human; for viability at 72 h: Host viability (%) mean
[17] = target: Aurora A; parameters: method as in library vendor description; conditions: ref library vendor description; cited from earlier work
[18] = tested on: EGFRL858R; parameters: method as in library vendor description; conditions: ref library vendor description; cited from earlier work
[19] = tested on: EGFRL858R/T790M; parameters: method as in library vendor description; conditions: ref library vendor description; cited from earlier work
[20] = tested on: Kasumi-1 cells; parameters: dose or concentration left out as unconfirmed; conditions: cited from earlier work
[21] = tested on: RH GFP-TgAtg8 parasites; experiment: Invasion assay; conditions: pre-treated 8 h, GSK-J4 HCl 5 μM, invasion for 1 h
[22] = tested on: Kasumi-1 cells; conditions: in vitro; read-out: IC50 against Kasumi-1 cells; cited from earlier work
[23] = parameters: method as in library vendor description; conditions: target not given; ref library vendor description; read-out: IC50 (DNA-damaging agent); cited from earlier work
[24] = tested on: OSA 8 cells; parameters: method as in library vendor description; conditions: HSP90 inhibitor; ref library vendor description; cited from earlier work
[25] = target: rat 17,20-lyase; parameters: method as in library vendor description; conditions: ref library vendor description; cited from earlier work
[26] = target: human 17,20-lyase; parameters: method as in library vendor description; conditions: ref library vendor description; cited from earlier work
[27] = tested on: NS3/4A protease of hepatitis C virus (HCV); parameters: method as in library vendor description; conditions: ref library vendor description; cited from earlier work
[28] = tested on: BxPC3 cells; parameters: method as in library vendor description; conditions: ref library vendor description; cited from earlier work
[29] = tested on: MIAPaCa2 cells; parameters: method as in library vendor description; conditions: ref library vendor description; cited from earlier work
[30] = tested on: PANC1 cells; parameters: method as in library vendor description; conditions: ref library vendor description; cited from earlier work
[31] = tested on: Capan2 cells; parameters: method as in library vendor description; conditions: ref library vendor description; cited from earlier work
[32] = tested on: EGFR(E746_A750); parameters: method as in library vendor description; conditions: ref library vendor description; cited from earlier work
[33] = tested on: CDK9; parameters: method as in library vendor description; conditions: ref library vendor description; cited from earlier work
[34] = read-out: Parasite inhibition (%) mean, preliminary screen, mean
[35] = read-out: Parasite inhibition (%) mean

## CCCS(=O)(=O)Nc1ccc(F)c(C(=O)c2c[nH]c3ncc(Cl)cc23)c1F [PLX-4720]
[1]; [34]
  inhibition of growth at 5 µM: 0.2%
[2]
  IC50: 0.0067 µM

## NVP-AEW541
[3]
  percentage of parasites in G1 phase: 44.25%
  percentage of parasites in G2 phase: 8.30%
  percentage of parasites in S phase: 47.45%
[4]
  TD50 against HFF (host cell): 7.3 µM
[5]
  anti-tumour activity in mouse model: had anti-NWT-21 fibrosarcoma activity
[6]
  Host viability (%) mean: 80.7%
[6]; 5 µM
  Host viability (%) Mean ± SD: 80.7 ± 1.2%
[7]
  IC50: 0.086 µM
[8]
  IC50: 1.64 µM
[9]
  effect on Toxoplasma egress: neither NVP-AEW541 nor GSK-J4 HCl inhibits Toxoplasma egress
[10]; 50 mg/kg of body weight for 1–2 weeks
  toxicity in experimental mice: no apparent toxicity
[11]
  survival time of infected mice: 14.6 ± 1.84 days
[12]
  Parasite inhibition (%) Mean ± SD: 91.5 ± 2.5%
[13]; RH-2F-infected HFFs, serial dilutions 0 to 100 μM, β-Gal activity
  IC50: 1.17 µM
[14]
  effect on Toxoplasma intracellular growth (tachyzoites per vacuole): not impaired

## CC(C)c1cc(C(=O)N2Cc3ccc(CN4CCN(C)CC4)cc3C2)c(O)cc1O [AT13387]
[15]
  IC50: 0.018 µM
[1]; [34]
  inhibition of growth at 5 µM: -1.7%

## Cc1nc(N)sc1-c1ccnc(Nc2ccc(N3CCOCC3)cc2)n1 [CYC116]
[16]
  viability at 72 h: 60.6%
[17]
  Ki: 0.008 µM
[1]; [34]
  inhibition of growth at 5 µM: 71.7%

## C=CC(=O)Nc1cccc(Oc2nc(Nc3ccc(N4CCN(C)CC4)cc3OC)ncc2Cl)c1 [WZ4002]
[18]
  IC50: […]
[1]; [34]
  inhibition of growth at 5 µM: -5.9%
[19]
  IC50: […]

## CCOC(=O)CCNc1cc(N2CCc3ccccc3CC2)nc(-c2ccccn2)n1 [GSK-J4 HCl]
[3]
  percentage of parasites in G1 phase: 70.88%
  percentage of parasites in G2 phase: 0.00%
  percentage of parasites in S phase: 29.12%
[4]
  TD50 against HFF (host cell): 34.6 µM
[16]; Host viability (%) Mean ± SD
  viability at 72 h, 5 µM: 92.2 ± 3.8%
[16]
  viability at 72 h: 92.2%
[20]
  leukemia infiltration in AML xenograft mouse model: decreased leukemia infiltration
[9]
  effect on Toxoplasma egress: neither NVP-AEW541 nor GSK-J4 HCl inhibits Toxoplasma egress
[10]; 50 mg/kg of body weight for 4–6 weeks
  toxicity in experimental mice: no apparent toxicity
[11]
  survival time of infected mice: 15.2 ± 1.69 days
[1]; read-out: Parasite inhibition (%) Mean ± SD
  inhibition at 5 µM: 90.4 ± 1.4%
[13]; Toxoplasma gondii
  IC50: 2.37 µM
[14]
  effect on Toxoplasma intracellular growth (tachyzoites per vacuole): significantly inhibited Toxoplasma intracellular growth
[21]
  effect on ability of parasites to invade host cells: not affected
[22]
  IC50: 5.52 µM

## Cn1c(CCCC(=O)O)nc2cc(N(CCCl)CCCl)ccc21 [Bendamustine HCL]
[1]; [35]
  inhibition of growth at 5 µM: 0.4%
[23]
  IC50: 50 µM

## CC(C)c1cc(-c2n[nH]c(=O)n2-c2ccc3c(ccn3C)c2)c(O)cc1O [Ganetespib (STA-9090)]
[1]; [34]
  inhibition of growth at 5 µM: 5.1%
[24]
  IC50: 0.004 µM

## CNC(=O)c1ccc2cc(C3(O)CCn4cncc43)ccc2c1 (stereo not drawn) [TAK-700 (Orteronel)]
[25]
  IC50: 0.054 µM
[1]; [34]
  inhibition of growth at 5 µM: 0.9%
[26]
  IC50: 0.038 µM

## CC(C)(C)OC(=O)N[C@H]1CCCCC/C=C\[C@@H]2C[C@@]2(C(=O)NS(=O)(=O)C2CC2)NC(=O)[C@@H]2C[C@@H](OC(=O)N3Cc4cccc(F)c4C3)CN2C1=O [Danoprevir]
[27]
  IC50: 0.0002 to 0.0035 µM
[1]; [34]
  inhibition of growth at 5 µM: 0.9%

## Nc1ccn([C@@H]2O[C@@H](CO)[C@@H](O)C2(F)F)c(=O)n1 [Gemcitabine HCl (Gemzar)]
[16]
  viability: 16.8%
[28]
  IC50: 0.018 µM
[29]
  IC50: 0.04 µM
[30]
  IC50: 0.05 µM
[1]; [34]
  inhibition of growth at 5 µM: 75.4%
[31]
  IC50: 0.012 µM

## C=CC(=O)Nc1cccc(Oc2nc(Nc3ccc(N4CCN(C)CC4)cc3)ncc2Cl)c1 [WZ3146]
[18]
  IC50: 0.002 µM
[32]
  IC50: 0.002 µM
[1]; [35]
  inhibition of growth at 5 µM: -33.7%

## CC(C)(C)c1cnc(CSc2cnc(NC(=O)C3CCNCC3)s2)o1 [SNS-032 (BMS-387032)]
[1]; [34]
  inhibition of growth at 5 µM: 9.9%
[33]
  IC50: […]
